# Laboratory results as given in patent publication US8809366B2, “Thienopyridine ester derivative containing cyano group, preparation method, use and composition thereof” (Tianjin Institute of Pharmaceutical Research, priority 2011, dated 2014).
# Key:
# [1] = 1000 mg/kg intragastric once a day; from the third day of administration
# Method: Two Weeks of Toxicity Studies on Rats (Compared with Clopidogrel)
# 100 mg/ml suspension is prepared before use, and administrated intragastricly at 1 ml/100 g every morning.
# Experimental animals: SD rats weighing about 180 g, 7 female and 7 male in each group.
# The same amount of solvent is administrated intragastricly to the blank control group, and equal-dose (1000 mg/kg) of Clopidogrel is administrated intragastricly to the positive control group.
# [2] = rat, in vivo
# [3] = tested on: ADP-induced platelet aggregation; assay: Inhibiting effect on rat platelet aggregation (ADP-induced, PRP taken 2 h after intragastric administration); format: in vivo, Wistar rats; details: blood 2 h after administration, ADP final concentration 1.08 μM, X ± SD
# Method: Experiments of Inhibiting Effect on Rat Platelet Aggregation:
# ADP: produced by SIGMA Co.
# Wistar rats: SPF grade, male, provided by The Institute of Laboratory Animal Science, Chinese Academy of Medical Sciences, license No. SCXK (jing) 2005-0013.
# PAM-3 Dual Channel Platelet Aggregometer: produced by Jiangsu Danyang Radio Factory.
# Healthy male Wistar rats weighing 200-250 g were selected and randomly divided into groups. The experiments were carried out in three batches, and each batch was distributed into a normal control group and 6 compound groups, and totally two dose groups were tested in each batch. […] Intragastric administration with a dose volume of 10 ml/kg·bw was used. The normal control group was given the same amount of 0.5% CMC-Na. 2 h after administration, 40 mg/kg of pentobarbital sodium was intraperitoneally injected (1 ml/kg) for anesthesia, and blood was collected from the abdominal aorta. 3.8% sodium citrate was used for anticoagulation, and platelet-rich plasma (PRP) and platelet-poor plasma (PPP) were prepared respectively. Maximum percentage of ADP (final concentration: 1.08 μM) induced platelet aggregation was tested on a PAM-3 Dual Channel Platelet Aggregometer.
# [4] = 15 mg/kg intragastric, n=10, control group 74.2 ± 20.8
# [5] = 30 mg/kg intragastric, n=6, control group 47.1 ± 14.2
smiles,measurement,setting,value
"COC(=O)[C@H](c1ccccc1Cl)N1CCc2sccc2C1 [Clopidogrel, reference compound]",hemorrhagic secretions around the rats' nasal,[1],hemorrhagic secretions around the rats' nasal can be observed
"CC(=O)Oc1cc2c(s1)CCN(Cc1ccccc1C#N)C2 [Compound I-1, (5-(2-cyanobenzyl)-4,5,6,7-tetrahydrothieno[3,2-c]pyridin-2-yl)acetate]",hemorrhagic secretions around the rats' nasal,[1],obviously slight in the compound I-1 group than in the Clopidogrel group
same,"conversion rate into active metabolites thiols, higher than Clopidogrel",[2],about 5 times
same,time to peak concentration of active metabolites,[2],50 to 60 min
same,Maximum percentage of aggregation,[3]; [4],20.5 ± 25.5%
same,Maximum percentage of aggregation,[3]; [5],8.4 ± 8.3%
CC(=O)Oc1cc2c(s1)CCN(Cc1ccc(C#N)cc1)C2 [Compound I-3],"conversion rate into active metabolites thiols, higher than Clopidogrel",[2],about 5 times
same,time to peak concentration of active metabolites,[2],50 to 60 min
same,Maximum percentage of aggregation,[3]; [4],22.7 ± 24.1%
same,Maximum percentage of aggregation,[3]; [5],8.7 ± 17.8%
"CC(=O)Oc1cc2c(s1)CCN(Cc1cccc(C#N)c1)C2 [Compound I-2, (5-(3-cyanobenzyl)-4,5,6,7-tetrahydrothieno[3,2-c]pyridin-2-yl)acetate]","conversion rate into active metabolites thiols, higher than Clopidogrel",[2],about 5 times
same,time to peak concentration of active metabolites,[2],50 to 60 min
same,Maximum percentage of aggregation,[3]; [4],29.8 ± 24.3%
same,Maximum percentage of aggregation,[3]; [5],4.9 ± 28.4%
